# Experimental data taken from patent US20210283139A1, “BIFUNCTIONAL MOLECULES FOR TARGETING UCHL5” (AMPHISTA THERAPEUTICS LTD, priority 2018, published 2021).
# What was measured:
# Type in all cases: cell-based
# Brd3 [1] = target: T1, Brd3 (Homo sapiens, UniProt Q15059); experiment: Concentration-dependent BET degradation, immunoblot, HeLa cells; parameters: endogenous in cells; host or cells: HeLa; settings: Brd3, 6 h treatment, 1 nM-10 μM; for Dmax: read-out: Dmax (%) maximum degradation observed
# T1 sequence (Q15059 whole entry): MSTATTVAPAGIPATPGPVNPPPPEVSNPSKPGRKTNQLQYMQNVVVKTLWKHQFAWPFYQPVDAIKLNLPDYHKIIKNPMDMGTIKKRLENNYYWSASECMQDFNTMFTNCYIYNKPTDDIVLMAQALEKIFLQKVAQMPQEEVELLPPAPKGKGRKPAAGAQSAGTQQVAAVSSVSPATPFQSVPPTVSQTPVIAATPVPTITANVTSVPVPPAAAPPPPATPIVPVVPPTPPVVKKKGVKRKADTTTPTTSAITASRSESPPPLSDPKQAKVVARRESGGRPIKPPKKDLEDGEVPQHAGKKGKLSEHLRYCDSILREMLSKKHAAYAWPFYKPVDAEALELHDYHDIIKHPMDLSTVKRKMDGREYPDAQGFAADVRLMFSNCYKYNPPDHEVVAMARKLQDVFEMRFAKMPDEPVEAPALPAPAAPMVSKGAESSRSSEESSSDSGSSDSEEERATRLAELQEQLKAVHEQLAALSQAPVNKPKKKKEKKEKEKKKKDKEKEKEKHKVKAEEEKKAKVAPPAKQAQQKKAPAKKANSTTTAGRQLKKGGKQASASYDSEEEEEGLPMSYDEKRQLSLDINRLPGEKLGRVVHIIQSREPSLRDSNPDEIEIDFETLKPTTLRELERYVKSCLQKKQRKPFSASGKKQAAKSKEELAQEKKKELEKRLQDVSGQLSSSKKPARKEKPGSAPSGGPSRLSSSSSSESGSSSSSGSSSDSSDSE
# Protocol: (§1) Cell culture. HeLa (CCL-2) and HEK293 (CRL-1573) cells were purchased from ATCC and cultured in DMEM medium (Gibco) supplemented with 10% FBS, 100 μg/mL penicillin/streptomycin and L-glutamine. Cells were grown at 37° C. and 5% CO2, and were kept no longer than 30 passages. All cell lines were routinely tested for mycoplasma contamination using MycoAlert kit from Lonza.
# (§2) Immunoblotting. proteins were separated by SDS-PAGE on NuPage 4-12% Bis-Tris gels, followed by transfer to Amersham Protran 0.45 NC nitrocellulose membrane (GE Healthcare) using wet transfer. Membranes were blocked using 5% w/v milk in Tris-buffered saline (TBS) with 0.1% Tween-20. Blots were probed (overnight at 4° C.) using anti-Brd2 (Abcam ab139690, 1:2,000 dilution), anti-Brd3 (Abcam ab50818, 1:500 dilution), and anti-Brd4 (Abcam ab128874, 1:1,000 dilution) primary antibodies, as appropriate. The next day, blots were washed with TBST and incubated (1 hr at RT) with anti-Tubulin hFAB-rhodamine (BioRad, 12004166) primary antibody, and either anti-rabbit IRDye 800CW (Licor 1:10,000 dilution) or anti-mouse IRDye 800CW (Licor 1:10,000 dilution) secondary antibody. Blots were developed using a Bio-Rad ChemiDoc MP Imaging System, and band quantification was performed using Image Studio software (LiCor). Band intensities were normalized to the tubulin loading control and reported as % of the average 0.1% DMSO vehicle intensity. Degradation data was plotted and analysed using Prism (Graphpad, version 8).
# (§3) HeLa (5×10^5) and HEK293 (1×10^6) cells were seeded in standard 6-well plates (2 mL medium) overnight before treatment with compounds at the desired concentration (1 nM-10 μM), with a final DMSO concentration of 0.1% v/v. After 6 h treatment time, cells were washed with DPBS (Gibco) and lysed using 85 μL RIPA buffer (Sigma-Aldrich) supplemented with cOmplete Mini EDTA-free protease inhibitor cocktail (Roche) and benzonase. Lysates were clarified by centrifugation (20,000g, 10 min, 4° C.) and the total protein content of the supernatant was quantified using a Bradford colorimetric assay. Samples were prepared using equal amounts of total protein and LDS sample buffer (Invitrogen.
# (§4) Representative blots in FIG. 3 show depletion of Brd2, Brd3 and Brd4 protein levels following treatment with increasing concentrations of representative compounds. Band intensities were normalized to the β-tubulin loading control and reported as % of the average 0.1% DMSO vehicle intensity, with each point representing mean±SEM of two independent experiments (n=2). Degradation data was plotted and analysed using Prism (Graphpad, version 8)
# Brd2 [2] = target: T2, Brd2 (Homo sapiens, UniProt P25440); experiment: as above; parameters: endogenous in cells; host or cells: HeLa; settings: Brd2, 6 h treatment, 1 nM-10 μM; for Dmax: read-out: Dmax (%) maximum degradation observed
# T2 sequence (P25440 whole entry): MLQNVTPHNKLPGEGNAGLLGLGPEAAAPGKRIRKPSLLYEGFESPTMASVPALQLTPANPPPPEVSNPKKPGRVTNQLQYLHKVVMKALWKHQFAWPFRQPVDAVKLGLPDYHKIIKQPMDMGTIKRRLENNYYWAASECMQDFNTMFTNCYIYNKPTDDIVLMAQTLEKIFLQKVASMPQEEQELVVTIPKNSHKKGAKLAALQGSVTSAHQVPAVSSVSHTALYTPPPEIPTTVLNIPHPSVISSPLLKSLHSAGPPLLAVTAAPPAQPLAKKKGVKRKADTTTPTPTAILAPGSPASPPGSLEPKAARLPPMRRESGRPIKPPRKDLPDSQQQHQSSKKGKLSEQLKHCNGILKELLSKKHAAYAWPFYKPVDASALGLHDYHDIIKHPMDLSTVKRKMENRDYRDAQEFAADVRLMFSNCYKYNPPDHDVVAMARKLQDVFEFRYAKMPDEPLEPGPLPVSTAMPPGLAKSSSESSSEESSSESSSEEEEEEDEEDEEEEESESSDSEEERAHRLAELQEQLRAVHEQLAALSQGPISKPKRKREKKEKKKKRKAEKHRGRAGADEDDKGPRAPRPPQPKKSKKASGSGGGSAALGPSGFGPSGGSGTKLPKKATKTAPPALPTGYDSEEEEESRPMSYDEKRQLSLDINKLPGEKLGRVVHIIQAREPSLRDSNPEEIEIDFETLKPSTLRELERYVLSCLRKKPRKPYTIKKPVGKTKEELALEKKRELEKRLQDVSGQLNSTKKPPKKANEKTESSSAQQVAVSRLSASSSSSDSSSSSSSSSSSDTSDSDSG
# Protocol: as §1, §2, §3, §4
# MV4-11 cells = experiment: Anti-proliferative effect, CellTiter-Glo assay; settings: MV4-11, CellTiter-Glo, 72 h incubation, 5 μM and below
# Protocol: The anti-proliferative effects of representative compounds were measured using the CellTiter-Glo assay (Promega). MV4-11 cells were incubated in a sterile, white, clear-bottomed 384-well cell-culture microplate (Greiner Bio-one), at 2× concentration in RPMI media and a volume of 25 μl. The next day, test compounds were serially diluted in RPMI media to 2× concentration, then added to cells to make a final volume of 50 μl. After a 72 h incubation 25 μl of CellTiter-Glo reagent was added to each well. Following 15 minute incubation the luminescence signal was read on a Pherastar FS. The final concentration of assay components are as follows: 3×10^5 cells/mL, 0.05% DMSO, 5 μM and below compound. Data (FIG. 11) was processed and dose-response curves generated using Prism 8 (Graphpad).
# Brd4 (S) = target: T3, Brd4 (S) (Homo sapiens, UniProt O60885); experiment: Concentration-dependent BET degradation, immunoblot, HEK293 cells; settings: 6 h treatment, 1 nM-10 μM; for Dmax: read-out: Dmax (%) maximum degradation observed
# T3 construct: endogenous in cells; host or cells: HEK293, HeLa
# Protocol: as §1, §2, §3, §4
# Brd4 (L) = target: T4, Brd4 (L) (Homo sapiens, UniProt O60885); experiment: as above; settings: 6 h treatment, 1 nM-10 μM; for Dmax: read-out: Dmax (%) maximum degradation observed
# T4 construct: endogenous in cells; host or cells: HEK293, HeLa
# Protocol: as §1, §2, §3, §4
# Brd3 [3] = target: T1, Brd3; experiment: as above; parameters: endogenous in cells; host or cells: HEK293; settings: HEK293, Brd3, 6 h treatment, 1 nM-10 μM; for Dmax: read-out: Dmax (%) maximum degradation observed
# Protocol: as §1, §2, §3, §4
# Brd2 [4] = target: T2, Brd2; experiment: as above; parameters: endogenous in cells; host or cells: HEK293; settings: HEK293, Brd2, 6 h treatment, 1 nM-10 μM; for Dmax: read-out: Dmax (%) maximum degradation observed
# Protocol: as §1, §2, §3, §4
# Brd3 [5] = target: T1, Brd3; experiment: Time-dependent BET degradation, immunoblot, HEK293 cells; parameters: endogenous in cells; host or cells: HEK293; settings: HEK293, Brd3, 1 μM, timecourse 0-8 h
# Protocol: as §1, §2
# as §3, with “(3×10^5)” for “(5×10^5)”, “(0.5×10^6)” for “(1×10^6)”, “1 μM concentration,” for “the desired concentration (1 nM-10 μM),”, “incubation for the desired time (0-8 h),” for “6 h treatment time,”, “(20,000 g,” for “(20,000g,”, “(Invitrogen).” for “(Invitrogen.”
# as §4, with “FIG. 4” for “FIG. 3”, “following 1 μM” for “following”, “treatment at various time points” for “treatment”, “with” for “with increasing concentrations of”, “version 8).” for “version 8)”
# (§5) T½ (h) is the time required to deplete 50% of the protein relative to DMSO
# Brd2 [6] = target: T2, Brd2; experiment: as above; parameters: endogenous in cells; host or cells: HEK293; settings: HEK293, Brd2, 1 μM, timecourse 0-8 h
# Protocol: as §1, §2
# as §3, with “(3×10^5)” for “(5×10^5)”, “(0.5×10^6)” for “(1×10^6)”, “1 μM concentration,” for “the desired concentration (1 nM-10 μM),”, “incubation for the desired time (0-8 h),” for “6 h treatment time,”, “(20,000 g,” for “(20,000g,”, “(Invitrogen).” for “(Invitrogen.”
# as §4, with “FIG. 4” for “FIG. 3”, “following 1 μM” for “following”, “treatment at various time points” for “treatment”, “with” for “with increasing concentrations of”, “version 8).” for “version 8)”
# as §5
DC50 (Brd3 [1]) [nM],Dmax (Brd3 [1]) [%],DC50 (Brd2 [2]) [nM],Dmax (Brd2 [2]) [%],DC50 (Brd4 (S)) [nM],Dmax (Brd4 (S)) [%],DC50 (Brd4 (L)) [nM],Dmax (Brd4 (L)) [%],DC50 (Brd3 [3]) [nM],Dmax (Brd3 [3]) [%],DC50 (Brd2 [4]) [nM],Dmax (Brd2 [4]) [%],Dmax at 1 µM (Brd3 [5]) [%],Dmax at 1 µM (Brd2 [6]) [%],Compound,cytotoxicity profile (anti-proliferative effect) (MV4-11 cells)
≤ 50,≥ 71,≤ 50,≥ 71,≤ 50,≥ 71,≤ 50,≥ 71,51 to 500,51 to 70,51 to 500,26 to 50,74,76,CCCC(NC(=O)/C(C#N)=C/c1cccc(Br)n1)c1ccc(OCCOCCOCCOCCOCCOCCOCCNC(=O)c2ccc(-c3ccc4c(c3)[C@H](Nc3ccc(Cl)cc3)C[C@H](C)N4C(C)=O)cc2)cc1 (stereo partly drawn) [Example 05IB6],distinct from I-BET726 and inactive 05IB11
51 to 500,≥ 71,51 to 500,≥ 71,≤ 50,≥ 71,≤ 50,≥ 71,≤ 50,≥ 71,51 to 500,≥ 71,100,83,CCCC(NC(=O)/C(C#N)=C/c1cccc(Br)n1)c1ccc(OCC=NOCC(=O)NCCOCCOCCOCCOCCOCCNC(=O)c2ccc3c(c2)[C@H](Nc2ccc(Cl)cc2)C[C@H](C)N3C(C)=O)cc1 (stereo partly drawn) [Example 05IB3],distinct from I-BET726 and inactive 05IB11
≤ 50,51 to 70,51 to 500,≥ 71,≤ 50,≥ 71,≤ 50,≥ 71,≤ 50,51 to 70,≤ 50,51 to 70,60,73,CCCC(NC(=O)/C(C#N)=C/c1nccs1)c1ccc(OCCOCCOCCOCCOCCOCCOCCNC(=O)c2ccc(-c3ccc4c(c3)[C@H](Nc3ccc(Cl)cc3)C[C@H](C)N4C(C)=O)cc2)cc1 (stereo partly drawn) [Example 05IB9],distinct from I-BET726 and inactive 05IB11
